Data published in ChEMBL document CHEMBL1138130, “Synthesis and antibacterial activity of 3-O-acyl-6-O-carbamoyl erythromycin A derivatives” (2006).
Values after ≈ are worked out from the molar mass of the structure shown.

What was measured:
Assay type in all cases: functional
[1] = tested on: Streptococcus pneumoniae; experiment: Antibacterial activity against Streptococcus pneumoniae OC9132
[2] = tested on: Streptococcus pneumoniae; experiment: Antibacterial activity against Mef(A) efflux pump containing Streptococcus pneumoniae OC4438
[3] = tested on: Staphylococcus aureus; experiment: Antibacterial activity against Staphylococcus aureus OC4172
[4] = tested on: Streptococcus pneumoniae; experiment: Antibacterial activity against erm(B) ribosomal methylase gene containing Streptococcus pneumoniae OC4051
[5] = tested on: Haemophilus influenzae; experiment: Antibacterial activity against Haemophilus influenzae OC4882

Compound | MIC [1] [µg/mL] | MIC [2] [µg/mL] | MIC [3] [µg/mL] | MIC [4] [µg/mL] | MIC [5] [µg/mL]
CC[C@H]1OC(=O)[C@H](C)[C@@H](OC(=O)C(C)C)[C@H](C)[C@@H](O[C@@H]2O[C@H](C)C[C@H](N(C)C)[C@H]2O)[C@](C)(OC(=O)NC/C=C/c2ccc(-c3cccnn3)cc2)C[C@@H](C)C(=O)[C@H](C)[C@H]2NC(=O)O[C@@]21C | 0.06 (≈ 0.0661 µM) | 0.06 (≈ 0.0661 µM) | 0.5 (≈ 0.551 µM) | 0.12 (≈ 0.132 µM) | 2 (≈ 2.2 µM)
CC[C@H]1OC(=O)[C@H](C)[C@@H](OC(=O)N(CC)CC)[C@H](C)[C@@H](O[C@@H]2O[C@H](C)C[C@H](N(C)C)[C@H]2O)[C@](C)(OC(=O)NC/C=C/c2cnc3ccccc3c2)C[C@@H](C)C(=O)[C@H](C)[C@H]2NC(=O)O[C@@]21C | 0.06 (≈ 0.0659 µM) | 0.06 (≈ 0.0659 µM) | 0.5 (≈ 0.549 µM) | 0.12 (≈ 0.132 µM) | 4 (≈ 4.4 µM)
CC[C@H]1OC(=O)[C@H](C)[C@@H](OC(=O)N(CC)CC)[C@H](C)[C@@H](O[C@@H]2O[C@H](C)C[C@H](N(C)C)[C@H]2O)[C@](C)(OC(=O)NC/C=C/c2ccc(-c3cccnn3)cc2)C[C@@H](C)C(=O)[C@H](C)[C@H]2NC(=O)O[C@@]21C | 0.06 (≈ 0.064 µM) | 0.12 (≈ 0.128 µM) | 0.5 (≈ 0.534 µM) | 0.25 (≈ 0.267 µM) | 4 (≈ 4.27 µM)
CC[C@H]1OC(=O)[C@H](C)[C@@H](OC(=O)N(CC)CC)[C@H](C)[C@@H](O[C@@H]2O[C@H](C)C[C@H](N(C)C)[C@H]2O)[C@](C)(OC(=O)NC/C=C/c2ccc(-n3cccn3)cc2)C[C@@H](C)C(=O)[C@H](C)[C@H]2NC(=O)O[C@@]21C | 0.12 (≈ 0.13 µM) | 0.12 (≈ 0.13 µM) | 1 (≈ 1.08 µM) | 0.5 (≈ 0.54 µM) | 4 (≈ 4.32 µM)
CC[C@H]1OC(=O)[C@H](C)[C@@H](OC(=O)C(C)C)[C@H](C)[C@@H](O[C@@H]2O[C@H](C)C[C@H](N(C)C)[C@H]2O)[C@](C)(OC(=O)NC/C=C/c2cnc3ccccc3c2)C[C@@H](C)C(=O)[C@H](C)[C@H]2NC(=O)O[C@@]21C | 0.03 (≈ 0.034 µM) | 0.03 (≈ 0.034 µM) | 0.25 (≈ 0.284 µM) | 0.06 (≈ 0.0681 µM) | 4 (≈ 4.54 µM)
CC[C@H]1OC(=O)[C@H](C)[C@@H](OC(=O)Cc2ccccn2)[C@H](C)[C@@H](O[C@@H]2O[C@H](C)C[C@H](N(C)C)[C@H]2O)[C@](C)(OC(=O)NC/C=C/c2ccc(-c3ncccn3)cc2)C[C@@H](C)C(=O)[C@H](C)[C@H]2NC(=O)O[C@@]21C | 0.03 (≈ 0.0313 µM) | 0.12 (≈ 0.125 µM) | 0.25 (≈ 0.261 µM) | 0.12 (≈ 0.125 µM) | 4 (≈ 4.18 µM)
CC[C@H]1OC(=O)[C@H](C)[C@@H](OC(=O)Nc2ccc(F)cc2)[C@H](C)[C@@H](O[C@@H]2O[C@H](C)C[C@H](N(C)C)[C@H]2O)[C@](C)(OC(=O)NC/C=C/c2ccc(-c3ncccn3)cc2)C[C@@H](C)C(=O)[C@H](C)[C@H]2NC(=O)O[C@@]21C | 0.12 (≈ 0.123 µM) | 0.25 (≈ 0.256 µM) | 1 (≈ 1.03 µM) | 2 (≈ 2.05 µM) | 16 (≈ 16.4 µM)
CC[C@H]1OC(=O)[C@H](C)[C@@H](OC(=O)C(C)C)[C@H](C)[C@@H](O[C@@H]2O[C@H](C)C[C@H](N(C)C)[C@H]2O)[C@](C)(OC(=O)NC/C=C/C=C/c2cccnc2)C[C@@H](C)C(=O)[C@H](C)[C@H]2NC(=O)O[C@@]21C | 0.06 (≈ 0.07 µM) | 0.12 (≈ 0.14 µM) | 0.5 (≈ 0.583 µM) | 0.25 (≈ 0.292 µM) | 4 (≈ 4.67 µM)
CC[C@H]1OC(=O)[C@H](C)C(=O)[C@H](C)[C@@H](O[C@@H]2O[C@H](C)C[C@H](N(C)C)[C@H]2O)[C@](C)(OC(=O)NC/C=C/c2ccc(-c3ncccn3)cc2)C[C@@H](C)C(=O)[C@H](C)[C@H]2NC(=O)O[C@@]21C | 0.03 (≈ 0.0359 µM) | 0.25 (≈ 0.299 µM) | 0.12 (≈ 0.144 µM) | 0.06 (≈ 0.0718 µM) | 4 (≈ 4.78 µM)
CC[C@H]1OC(=O)[C@H](C)[C@@H](OC(=O)c2cccnc2)[C@H](C)[C@@H](O[C@@H]2O[C@H](C)C[C@H](N(C)C)[C@H]2O)[C@](C)(OC(=O)NC/C=C/c2ccc(-c3ncccn3)cc2)C[C@@H](C)C(=O)[C@H](C)[C@H]2NC(=O)O[C@@]21C | 0.06 (≈ 0.0636 µM) | 0.25 (≈ 0.265 µM) | 0.5 (≈ 0.53 µM) | 4 (≈ 4.24 µM) | 16 (≈ 17 µM)
CC[C@H]1OC(=O)[C@H](C)[C@@H](OC(=O)CCc2cccnc2)[C@H](C)[C@@H](O[C@@H]2O[C@H](C)C[C@H](N(C)C)[C@H]2O)[C@](C)(OC(=O)NC/C=C/c2ccc(-c3ncccn3)cc2)C[C@@H](C)C(=O)[C@H](C)[C@H]2NC(=O)O[C@@]21C | 0.03 (≈ 0.0309 µM) | 0.06 (≈ 0.0618 µM) | 0.25 (≈ 0.257 µM) | 2 (≈ 2.06 µM) | 8 (≈ 8.24 µM)
CC[C@H]1OC(=O)[C@H](C)[C@@H](OC(=O)Nc2ccc(OC)cc2)[C@H](C)[C@@H](O[C@@H]2O[C@H](C)C[C@H](N(C)C)[C@H]2O)[C@](C)(OC(=O)NC/C=C/c2ccc(-c3ncccn3)cc2)C[C@@H](C)C(=O)[C@H](C)[C@H]2NC(=O)O[C@@]21C | 0.12 (≈ 0.122 µM) | 0.25 (≈ 0.253 µM) | 1 (≈ 1.01 µM) | 4 (≈ 4.05 µM) | 16 (≈ 16.2 µM)

The remaining lines, values ahead:

MIC [1] [µg/mL] | MIC [2] [µg/mL] | MIC [3] [µg/mL] | MIC [4] [µg/mL] | MIC [5] [µg/mL] | Compound
0.06 (≈ 0.0652 µM) | 0.12 (≈ 0.13 µM) | 1 (≈ 1.09 µM) | 0.12 (≈ 0.13 µM) | 16 (≈ 17.4 µM) | CC[C@H]1OC(=O)[C@H](C)[C@@H](OC(=O)CC2CC2)[C@H](C)[C@@H](O[C@@H]2O[C@H](C)C[C@H](N(C)C)[C@H]2O)[C@](C)(OC(=O)NC/C=C/c2ccc(-c3ncccn3)cc2)C[C@@H](C)C(=O)[C@H](C)[C@H]2NC(=O)O[C@@]21C
0.03 (≈ 0.0313 µM) | 0.06 (≈ 0.0627 µM) | 0.12 (≈ 0.125 µM) | 0.12 (≈ 0.125 µM) | 4 (≈ 4.18 µM) | CC[C@H]1OC(=O)[C@H](C)[C@@H](OC(=O)Cc2cccnc2)[C@H](C)[C@@H](O[C@@H]2O[C@H](C)C[C@H](N(C)C)[C@H]2O)[C@](C)(OC(=O)NC/C=C/c2ccc(-c3ncccn3)cc2)C[C@@H](C)C(=O)[C@H](C)[C@H]2NC(=O)O[C@@]21C
0.03 (≈ 0.0341 µM) | 0.12 (≈ 0.136 µM) | 1 (≈ 1.14 µM) | 0.5 (≈ 0.568 µM) | 16 (≈ 18.2 µM) | CC[C@H]1OC(=O)[C@H](C)[C@@H](OC(C)=O)[C@H](C)[C@@H](O[C@@H]2O[C@H](C)C[C@H](N(C)C)[C@H]2O)[C@](C)(OC(=O)NC/C=C/c2ccc(-c3ncccn3)cc2)C[C@@H](C)C(=O)[C@H](C)[C@H]2NC(=O)O[C@@]21C
0.06 (≈ 0.0661 µM) | 0.12 (≈ 0.132 µM) | 0.5 (≈ 0.551 µM) | 0.12 (≈ 0.132 µM) | 8 (≈ 8.81 µM) | CC[C@H]1OC(=O)[C@H](C)[C@@H](OC(=O)C(C)C)[C@H](C)[C@@H](O[C@@H]2O[C@H](C)C[C@H](N(C)C)[C@H]2O)[C@](C)(OC(=O)NC/C=C/c2ccc(-c3ncccn3)cc2)C[C@@H](C)C(=O)[C@H](C)[C@H]2NC(=O)O[C@@]21C
0.03 (≈ 0.0336 µM) | 0.12 (≈ 0.134 µM) | 0.5 (≈ 0.559 µM) | 0.25 (≈ 0.28 µM) | 8 (≈ 8.95 µM) | CCC(=O)O[C@H]1[C@H](C)[C@@H](O[C@@H]2O[C@H](C)C[C@H](N(C)C)[C@H]2O)[C@](C)(OC(=O)NC/C=C/c2ccc(-c3ncccn3)cc2)C[C@@H](C)C(=O)[C@H](C)[C@H]2NC(=O)O[C@]2(C)[C@@H](CC)OC(=O)[C@@H]1C
0.03 (≈ 0.0313 µM) | 0.12 (≈ 0.125 µM) | 0.25 (≈ 0.261 µM) | 0.25 (≈ 0.261 µM) | 4 (≈ 4.18 µM) | CC[C@H]1OC(=O)[C@H](C)[C@@H](OC(=O)Cc2ccncc2)[C@H](C)[C@@H](O[C@@H]2O[C@H](C)C[C@H](N(C)C)[C@H]2O)[C@](C)(OC(=O)NC/C=C/c2ccc(-c3ncccn3)cc2)C[C@@H](C)C(=O)[C@H](C)[C@H]2NC(=O)O[C@@]21C
